# Experimental data reported in patent publication US12653795B1, “Bupropion as a modulator of drug activity” (ANTECIP BIOVENTURES II LLC, priority 2022, dated 2026).
# Assay: Pharmacokinetics after administration of the subject combination
# Settings: co-administered with bupropion; dextromethorphan 30 to 60 mg, bupropion 75 to 150 mg
# Source text: In the subject combination, bupropion inhibits the metabolism of dextromethorphan via CYP2D6.
smiles,measurement,value
COc1ccc2c(c1)[C@]13CCCC[C@@H]1[C@H](C2)N(C)CC3 [dextromethorphan],pharmacokinetics at steady state (dose proportionality of AUC and Cmax),nonlinear pharmacokinetics
